“Also recorded” adds a separate entry of the source.
Columns and labels:
Type in all cases: cell-based
[1] = system: Escherichia coli (ATCC 25922); assay: Microbicidal activity against Escherichia coli (suspension test, surviving CFU); conditions: H2O2 88 mM 15 min; inoculum 1630000 CFU
From the text: Each solution was used alone for the individual controls. Organism suspensions were used to achieve a final target concentration of 2-3×10^6 CFU per ml. For the binary system treatments, sodium hypochlorite solution and hydrogen peroxide solution, non-acidified or acidified, were sequentially added to the microorganisms. Acidified hydrogen peroxide solution was obtained by the addition of 1.0% v/v of 0.001 N hydrochloride solution. After each addition, the resulting mixture was allowed to remain in contact with the organisms for a set amount of time at room temperature (about 22° C.), as listed in the Tables 1 and 2. At the end of the treatment time, the mixtures were neutralized with 200 to 500 microliters of thiosulfate solution (2.4%) to quench the activity of sodium hypochlorite and then treated with 100 to 200 microliters of a 1% catalase solution, containing a minimum of 100 units/ul, to quench the hydrogen peroxide activity. If needed, an appropriate volume of sterile saline was added to bring the final volume of reaction mixture to 1.4 ml after neutralization. Serial dilution plate counts were performed from the contents of each vial in sterile saline and inoculated onto TSA for quantitative culture. Plates were then incubated at 37° C. and counts taken at 24 hours. […]

[2] = system: Staphylococcus aureus (ATCC 6538); assay: Microbicidal activity against Staphylococcus aureus (suspension test, surviving CFU)
Method: Bacterial suspensions, specifically Staphylococcus aureus (ATCC 6538) in this example, were prepared by the shake flask method to achieve late log to early stationary phase growth. Bacteria were grown 24 hours in trypticase soy broth (TSB) at 35° C. The cultures were centrifuged at 4,000 rpm for 10 minutes and the supernatants removed. The pellet was collected and washed twice with sterile 0.9% normal saline. The washed microorganisms were suspended and diluted with normal saline to a 3 McFarland standard, i.e., approximately 10^9 bacteria colony forming units (CFU) per ml. Actual colony counts are confirmed by serial dilutions (10^−1 to 10^−5 or 10^−6) plated on trypticase soy agar (TSA) and incubated overnight at 35° C. One hundred microliters of organisms from a stock of 10^7 CFU/ml were used to obtain an approximate final working target inoculum of 10^6 CFU. The microbicidal test is conducted in a vial containing 1.4 ml of final reaction mixture after neutralization.
(§1) Each solution was used alone for the individual controls. Organism suspensions were used to achieve a final target concentration of 2-3×10^6 CFU per ml. For the binary system treatments, sodium hypochlorite solution and hydrogen peroxide solution, non-acidified or acidified, were sequentially added to the microorganisms. Acidified hydrogen peroxide solution was obtained by the addition of 1.0% v/v of 0.001 N hydrochloride solution. After each addition, the resulting mixture was allowed to remain in contact with the organisms for a set amount of time at room temperature (about 22° C.), as listed in the Tables 1 and 2. At the end of the treatment time, the mixtures were neutralized with 200 to 500 microliters of thiosulfate solution (2.4%) to quench the activity of sodium hypochlorite and then treated with 100 to 200 microliters of a 1% catalase solution, containing a minimum of 100 units/ul, to quench the hydrogen peroxide activity. If needed, an appropriate volume of sterile saline was added to bring the final volume of reaction mixture to 1.4 ml after neutralization. Serial dilution plate counts were performed from the contents of each vial in sterile saline and inoculated onto TSA for quantitative culture. Plates were then incubated at 37° C. and counts taken at 24 hours.
After an additional 30 minutes, the binary system mixture was then neutralized using 2.4% thiosulfate followed by 1% catalase as described in the Methods Section.

[3] = system: Bacillus subtilis (ATCC 19659) spores; assay: Microbicidal activity against Bacillus subtilis spores (suspension test, surviving CFU)
From the text: as §1
Suspensions of Bacillus subtilis (ATCC 19659) containing 100% spores, as confirmed by microscopy, were obtained by washing the spun-down cells with 50% ethanol to eliminate the vegetative form. Starting inoculum of approximately 1-3×10^6 CFU was used as in Example 1.
[…] The binary system was neutralized 30 minutes after addition of hydrogen peroxide using 2.4% thiosulfate and 1% catalase as described in Example 1.

Staphylococcus aureus = assay: Microbicidal activity of commonly used antiseptics against Staphylococcus aureus; conditions: inoculum 1475000 CFU
Method: (§2) The performance of commonly used antiseptics was tested against Bacillus subtilis and Staphylococcus aureus, following the general procedure of Example 1, to assess the improvement provided by the binary system over these compounds.
[…] Chlorhexidine and IPA were neutralized with 500 microliters of a solution containing 3% Saponin, 3% Tween-80, 0.3% lecithin, and 0.1% histidine. Povidone Iodine was neutralized with 500 microliters of thiosulfate solution (2.4%).

Bacillus subtilis spores = assay: Microbicidal activity of commonly used antiseptics against Bacillus subtilis spores
Method: as §2
After 60 minutes of exposure to the organisms, the individual antiseptics, indicated in Table 15 and Table 16, were neutralized using the corresponding neutralizing solutions prepared as listed below in Materials. Chlorhexidine and IPA were neutralized with 500 microliters of a solution containing 3% Saponin, 3% Tween-80, 0.3% lecithin, and 0.1% histidine. Povidone Iodine was neutralized with 500 microliters of thiosulfate solution (2.4%).

[4] = H2O2 0.35 mM 30 min, inoculum 2530000 CFU
[5] = H2O2 88 mM 5 min, inoculum 1600000 CFU
[6] = H2O2 88 mM 15 min, inoculum 1600000 CFU
[7] = H2O2 88 mM 30 min, inoculum 1600000 CFU
[8] = H2O2 294 mM 5 min, inoculum 1600000 CFU
[9] = H2O2 294 mM 15 min, inoculum 1600000 CFU
[10] = H2O2 294 mM 30 min, inoculum 1600000 CFU
[11] = H2O2 882 mM 5 min, inoculum 1600000 CFU
[12] = H2O2 882 mM 15 min, inoculum 1600000 CFU
[13] = H2O2 882 mM 30 min, inoculum 1600000 CFU
[14] = H2O2 2940 mM 5 min, inoculum 1600000 CFU
[15] = H2O2 2940 mM 15 min, inoculum 1600000 CFU
[16] = H2O2 2940 mM 30 min, inoculum 1600000 CFU
[17] = H2O2 8821 mM 5 min, inoculum 1600000 CFU
[18] = H2O2 8821 mM 15 min, inoculum 1600000 CFU
[19] = H2O2 8821 mM 30 min, inoculum 1600000 CFU
[20] = H2O2 35.25 mM 30 min, inoculum 1120000 CFU
[21] = H2O2 88 mM 60 min, inoculum 1865000 CFU
[22] = H2O2 294 mM 60 min, inoculum 1865000 CFU
[23] = H2O2 882 mM 60 min, inoculum 1865000 CFU
[24] = H2O2 2940 mM 60 min, inoculum 1865000 CFU
[25] = H2O2 8821 mM 60 min, inoculum 1865000 CFU
[26] = H2O2/H+ 0.35 mM 30 min, inoculum 2530000 CFU
[27] = H2O2/H+ 35.25 mM 30 min, inoculum 1120000 CFU
[28] = IPA 0.07% 60 min, inoculum 1865000 CFU
[29] = IPA 0.70% 60 min, inoculum 1865000 CFU
[30] = IPA 7% 60 min, inoculum 1865000 CFU
[31] = IPA 70% 60 min, inoculum 1865000 CFU
[32] = PVI 10.00% 60 min, inoculum 1120000 CFU

## OO [H2O2, hydrogen peroxide]
[1]
  Log 10 (CFU + 1) Survivors: 5.8
  Log Reduction: 0.4
  Total Viability (CFU): 588000 CFU
[2]; [4]
  Log 10 (CFU + 1) Survivors: 6.2
  Log Reduction: 0.2
  Total Viability (CFU): 1764000 CFU
[2]; [5]
  Log 10 (CFU + 1) Survivors: 6.2
  Log Reduction: 0.0
  Total Viability (CFU): 1694000 CFU
[2]; [6]
  Log 10 (CFU + 1) Survivors: 6.3
  Log Reduction: −0.1
  Total Viability (CFU): 2044000 CFU
[2]; [7]
  Log 10 (CFU + 1) Survivors: 6.3
  Log Reduction: −0.1
  Total Viability (CFU): 1792000 CFU
[2]; [8]
  Log 10 (CFU + 1) Survivors: 6.1
  Log Reduction: 0.1
  Total Viability (CFU): 1288000 CFU
[2]; [9]
  Log 10 (CFU + 1) Survivors: 6.1
  Log Reduction: 0.1
  Total Viability (CFU): 1190000 CFU
[2]; [10]
  Log 10 (CFU + 1) Survivors: 1.3
  Log Reduction: 4.9
  Total Viability (CFU): 21 CFU
[2]; [11]
  Log 10 (CFU + 1) Survivors: 4.1
  Log Reduction: 2.1
  Total Viability (CFU): 12040 CFU
[2]; [12]
  Log 10 (CFU + 1) Survivors: 0.0
  Log Reduction: 6.2
  Total Viability (CFU): 0 CFU
[2]; [13]
  Log 10 (CFU + 1) Survivors: 0.0
  Log Reduction: 6.2
  Total Viability (CFU): 0 CFU
[2]; [14]
  Log 10 (CFU + 1) Survivors: 0.0
  Log Reduction: 6.2
  Total Viability (CFU): 0 CFU
[2]; [15]
  Log 10 (CFU + 1) Survivors: 0.0
  Log Reduction: 6.2
  Total Viability (CFU): 0 CFU
[2]; [16]
  Log 10 (CFU + 1) Survivors: 0.0
  Log Reduction: 6.2
  Total Viability (CFU): 0 CFU
[2]; [17]
  Log 10 (CFU + 1) Survivors: 0.0
  Log Reduction: 6.2
  Total Viability (CFU): 0 CFU
[2]; [18]
  Log 10 (CFU + 1) Survivors: 0.0
  Log Reduction: 6.2
  Total Viability (CFU): 0 CFU
[2]; [19]
  Log 10 (CFU + 1) Survivors: 0.0
  Log Reduction: 6.2
  Total Viability (CFU): 0 CFU
[2]; highest concentration of hydrogen peroxide used in the binary system, tested alone
  microbicidal activity (kill of inoculum): completely ineffective and produced no kill
[2]; hydrogen peroxide 88 mM, within 30 minutes
  microbicidal activity (kill of inoculum): no microbicidal activity; also recorded: not microbicidal
[2]; hydrogen peroxide 8821 and 2940 mM, within 5 minutes, 6.2 log10 CFU inoculum
  microbicidal activity (kill of inoculum): complete kill
[2]; hydrogen peroxide intermediate concentrations
  microbicidal activity (kill of inoculum): partial kill
[3]; [20]
  Log 10 (CFU + 1) Survivors: 6.1
  Log Reduction: −0.1
  Total Viability (CFU): 1358000 CFU
[3]; [21]
  Log 10 (CFU + 1) Survivors: 6.3
  Log Reduction: 0.0
  Total Viability (CFU): 1974000 CFU
[3]; [22]
  Log 10 (CFU + 1) Survivors: 6.2
  Log Reduction: 0.1
  Total Viability (CFU): 1484000 CFU
[3]; [23]
  Log 10 (CFU + 1) Survivors: 5.3
  Log Reduction: 1.0
  Total Viability (CFU): 200200 CFU
[3]; [24]
  Log 10 (CFU + 1) Survivors: 2.8
  Log Reduction: 3.5
  Total Viability (CFU): 588 CFU
[3]; [25]
  Log 10 (CFU + 1) Survivors: 0.0
  Log Reduction: 6.3
  Total Viability (CFU): 0 CFU
[3]; hydrogen peroxide 8821 mM, within 60 minutes, 6.3 log10 CFU inoculum
  microbicidal activity (kill of inoculum): complete kill
[3]; hydrogen peroxide 294 to 88 mM, within 60 minutes
  microbicidal activity (kill of inoculum): no microbicidal activity
[3]; hydrogen peroxide 2940 and 882 mM, 60 minutes
  microbicidal activity (kill of inoculum): partial kill

## OO [H2O2/H+, hydrogen peroxide]
[2]; [26]
  Log 10 (CFU + 1) Survivors: 6.2
  Log Reduction: 0.2
  Total Viability (CFU): 1708000 CFU
[3]; [27]
  Log 10 (CFU + 1) Survivors: 6.2
  Log Reduction: −0.2
  Total Viability (CFU): 1624000 CFU

## CC(C)O [IPA, Isopropyl Alcohol]
Staphylococcus aureus; IPA 0.07% 15 min
  Log 10 (CFU + 1) Survivors: 6.3
  Log Reduction: −0.1
  Total Viability (CFU): 1932000 CFU
Staphylococcus aureus; IPA 0.70% 15 min
  Log 10 (CFU + 1) Survivors: 6.3
  Log Reduction: −0.1
  Total Viability (CFU): 1988000 CFU
Staphylococcus aureus; IPA 7% 15 min
  Log 10 (CFU + 1) Survivors: 6.3
  Log Reduction: −0.1
  Total Viability (CFU): 1834000 CFU
Staphylococcus aureus; IPA 70% 15 min
  Log 10 (CFU + 1) Survivors: 0.0
  Log Reduction: 6.2
  Total Viability (CFU): 0 CFU
Bacillus subtilis spores; [28]
  Log 10 (CFU + 1) Survivors: 6.4
  Log Reduction: −0.1
  Total Viability (CFU): 2422000 CFU
Bacillus subtilis spores; [29]
  Log 10 (CFU + 1) Survivors: 6.3
  Log Reduction: −0.1
  Total Viability (CFU): 2170000 CFU
Bacillus subtilis spores; [30]
  Log 10 (CFU + 1) Survivors: 6.4
  Log Reduction: −0.1
  Total Viability (CFU): 2352000 CFU
Bacillus subtilis spores; [31]
  Log 10 (CFU + 1) Survivors: 6.3
  Log Reduction: 0.0
  Total Viability (CFU): 2044000 CFU
Bacillus subtilis spores; any concentration tested, 60 min
  activity against B. subtilis spores: did not demonstrate activity

## Povidone Iodine [PVI]
Staphylococcus aureus; PVI 10.00% 15 min
  Log 10 (CFU + 1) Survivors: 0.0
  Log Reduction: 6.2
  Total Viability (CFU): 0 CFU
Bacillus subtilis spores; [32]
  Log 10 (CFU + 1) Survivors: 5.3
  Log Reduction: 0.8
  Total Viability (CFU): 189000 CFU

Source: patent US20070264355A1, “BINARY COMPOSITIONS AND METHODS FOR STERILIZATION” (Binary, LLC, priority 2005, published 2007)
